Assay [1] deals with DIO mice. The assay can be described thus: Chronic GIPA-1 study: circulating lipids, liver and fat depots in DIO mice. In kind it is in vivo, mouse. As to conditions: day 28, n = 10. As to the method:
23-week-old male C57BL/6JRj mice (n = 40), fed a HFD (SSNIFF® diet #12492[60% fat, 20% protein, 20% carbohydrate]) for 14 weeks, were distributed into 4 test groups and received daily either vehicle, liraglutide (0.2 mg/kg/day), GIPA-1 (~4.5 mg/kg/day) or liraglutide + GIPA-1 for 4 weeks while still maintained on HFD. GIPA-1 was delivered using minipumps in order to achieve sufficient GIPR antagonism based on the properties of this peptide (Fig 2A). Liraglutide was dissolved in phosphate-buffered saline (PBS) plus 0.1% bovine serum albumin (BSA) (vehicle 1) and GIPA-1 in DMSO/propylene glycol (50/50 volume per volume) (vehicle 2). 100 μL minipumps (Alzet) were filled with GIPA-1 (30 mg/mL) or vehicle 2 and kept in 0.9% saline at 37°C overnight. The minipump was placed subcutaneously through a 1-cm long incision in the neck with the animal under isoflurane anesthesia. Animals were treated with analgesics on day 0–3 (NSAID, carprofen […] SC QD). From day 0 (first dose) through day 28, mice received one of the following four treatments per day: (1) vehicle 1 (subcutaneous injection (SC)) and continuous infusion of vehicle 2 via osmotic minipump; (2) 0.2 mg/kg liraglutide (SC) and continuous infusion of vehicle 2 via osmotic minipump; (3) vehicle 1 (SC) and continuous infusion of GIPA-1 (~4.5 mg/kg/day; 56.8 nmol/kg/h) via osmotic minipump; and (4) liraglutide (0.2 mg/kg liraglutide, SC) plus continuous infusion of GIPA-1 (~4.5 mg/kg/day) via osmotic minipump. Dose levels of GIPA-1 were based on targeting plasma exposure levels sufficient to antagonise endogenous GIP and selected based on in vitro antagonism data. Fasted (4 hrs) blood glucose and insulin levels were measured on study day -3, 14 and 27. OGTT was performed on day 21 of the study. On the day of the OGTT the fasted animals received their daily doses of vehicles and liraglutide thirty minutes before receiving a glucose bolus (2 g/kg). Blood glucose was measured before their daily dosing and at 0, 15, 30 60, 120, 180 min after glucose administration. Plasma insulin was measured at 0 and 15 min. Whole body weight and food intake were measured throughout the study period. On the termination day (day 28), liver, epididymal fat depot, mesenteric fat depot, retroperitoneal fat depot and inguinal fat depot were dissected and weighted. Blood collected from the tail vein was used for determination of free fatty acids (FFAs) plasma concentration and blood collected via cardiac puncture was used for determination of terminal plasma triglyceride (TG) and total cholesterol (TC).
Fasting blood glucose was measured using a BIOSEN c-Line glucose meter (EKF-Diagnostics), insulin was measured using the Meso Scale Diagnostics platform, TG and TC were measured using commercial kits (Roche Diagnostics) on the Cobas C-501 autoanalyzer (Roche), and FFA levels were measured using a Wako Chemicals kit on the Cobas C-501 autoanalyzer, all according to the manufacturers’ instructions. Homeostatic model assessment of insulin resistance (HOMA-IR) was calculated using the following equation: [fasting serum glucose (mmol/L) × fasting serum insulin (pmol/L) / 22.5] to assess insulin resistance.
Fig 4 The effect of GIPR antagonism alone or in combination with liraglutide on lipid homeostasis in DIO mice. […] Statistical analysis was calculated using one-way ANOVA with Dunnett’s post-hoc test. *: p< 0.05, **: p < 0.01, ***: p < 0.001, ****: p<0.0001 compared to vehicle. […]

In assay [2] the test system is DIO mice. Description: Chronic GIPA-1 study: OGTT and insulin responses in DIO mice. In kind it is in vivo, mouse. The note with it: n = 10. As to the method:
23-week-old male C57BL/6JRj mice (n = 40), fed a HFD (SSNIFF® diet #12492[60% fat, 20% protein, 20% carbohydrate]) for 14 weeks, were distributed into 4 test groups and received daily either vehicle, liraglutide (0.2 mg/kg/day), GIPA-1 (~4.5 mg/kg/day) or liraglutide + GIPA-1 for 4 weeks while still maintained on HFD. GIPA-1 was delivered using minipumps in order to achieve sufficient GIPR antagonism based on the properties of this peptide (Fig 2A). Liraglutide was dissolved in phosphate-buffered saline (PBS) plus 0.1% bovine serum albumin (BSA) (vehicle 1) and GIPA-1 in DMSO/propylene glycol (50/50 volume per volume) (vehicle 2). 100 μL minipumps (Alzet) were filled with GIPA-1 (30 mg/mL) or vehicle 2 and kept in 0.9% saline at 37°C overnight. The minipump was placed subcutaneously through a 1-cm long incision in the neck with the animal under isoflurane anesthesia. Animals were treated with analgesics on day 0–3 (NSAID, carprofen 50 mg/kg SC QD). […] Fasted (4 hrs) blood glucose and insulin levels were measured on study day -3, 14 and 27. […] Blood glucose was measured before their daily dosing and at 0, 15, 30 60, 120, 180 min after glucose administration. Plasma insulin was measured at 0 and 15 min. Whole body weight and food intake were measured throughout the study period. […]
Fig 3 Effects of GIPA-1 and GIPA-2 on oral glucose tolerance and insulin responses in DIO mice. […] Statistical analysis was calculated using two-way ANOVA with Tukey’s post-hoc test and one-way ANOVA with Dunnett’s post-hoc test. *: p< 0.05, **: p < 0.01, ***: p < 0.001, ****: p<0.0001 compared to vehicle.

Take liraglutide: in assay [1], the “circulating total cholesterol (TC)” value was “significantly reduced circulating TC and liver TG concentrations”; the “liver TG” value is “significantly reduced circulating TC and liver TG concentrations”; the “plasma FFA” value is recorded as “no effect on either plasma TG or concentrations of circulating FFA”; the “plasma TG” value was “no effect on either plasma TG or concentrations of circulating FFA”. Further, the retroperitoneal fat weight result in assay [1] is “reduced in the GIPA-1 study in both the liraglutide and combination groups”. Also, the “insulin at time 0 of the OGTT” value in assay [2] (day 21, fasted, GIPA-1 study) was “liraglutide-induced decrement in insulin at time 0 of the OGTT”. In assay [2] (day 21, GIPA-1 study), the “baseline blood glucose (-30 min) of OGTT” value is “lower in the liraglutide group and in the combination group”. Besides, the “glucose excursion in OGTT” value in assay [2] (day 21, oral glucose 2 g/kg, liraglutide 0.2 mg/kg SC, GIPA-1 ~4.5 mg/kg/day minipump) is recorded as “beneficial glucose lowering effects of liraglutide”.

For the origin of these results see paper PMC8011784, “Chronic peptide-based GIP receptor inhibition exhibits modest glucose metabolic changes in mice when administered either alone or combined with GLP-1 agonism” (PLoS ONE, 2021).
